In PMC7368294 (Proceedings of the National Academy of Sciences of the …, 2020):
Like-named read-outs stand apart in the source and are kept apart here.

Key:
[1] = biological target: Btα1/Btα2/Btα8/Btβ1 nAChR (Bombus terrestris, UniProt A0A9B0BGM1+A0A9B0F4H3+A0A9B2JDZ7+A0A9B2JMX7); test: cell-based; set-up: species or system Xenopus laevis oocytes; conditions: Oocyte
[2] = biological target: Amα1/Amα2/Amα8/Amβ1 nAChR (Apis mellifera, UniProt A0A7M7MMZ9+A0A8U0WQ70+A0A8U0WQC0+A0A8U0WQD1); test: two-electrode voltage clamp of Xenopus oocytes, agonist concentration-response; format: cell-based
Btα1/Btα8/Btβ1 nAChR [3] = biological target: T1, Btα1/Btα8/Btβ1 nAChR (Bombus terrestris, UniProt A0A9B0BGM1+A0A9B0F4H3+A0A9B2JDZ7); test: as above; format: cell-based
T1 sequence (A0A9B0F4H3 44-615): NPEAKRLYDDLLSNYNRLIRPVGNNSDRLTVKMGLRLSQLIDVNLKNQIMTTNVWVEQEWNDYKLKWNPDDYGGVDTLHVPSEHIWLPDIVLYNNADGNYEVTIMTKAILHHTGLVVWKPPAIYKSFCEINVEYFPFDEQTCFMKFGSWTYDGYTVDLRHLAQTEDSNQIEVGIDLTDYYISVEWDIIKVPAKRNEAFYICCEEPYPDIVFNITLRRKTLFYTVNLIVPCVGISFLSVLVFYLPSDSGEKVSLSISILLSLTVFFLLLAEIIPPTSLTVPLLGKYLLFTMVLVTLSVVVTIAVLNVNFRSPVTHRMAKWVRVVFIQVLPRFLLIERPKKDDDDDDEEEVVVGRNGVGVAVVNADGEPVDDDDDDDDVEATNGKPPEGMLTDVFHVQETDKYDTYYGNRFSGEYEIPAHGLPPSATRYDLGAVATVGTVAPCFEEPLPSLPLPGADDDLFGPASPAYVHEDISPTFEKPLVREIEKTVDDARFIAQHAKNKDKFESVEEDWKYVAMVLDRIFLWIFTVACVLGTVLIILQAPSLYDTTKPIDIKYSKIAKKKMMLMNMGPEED
T1 sequence (A0A9B2JDZ7 22-535): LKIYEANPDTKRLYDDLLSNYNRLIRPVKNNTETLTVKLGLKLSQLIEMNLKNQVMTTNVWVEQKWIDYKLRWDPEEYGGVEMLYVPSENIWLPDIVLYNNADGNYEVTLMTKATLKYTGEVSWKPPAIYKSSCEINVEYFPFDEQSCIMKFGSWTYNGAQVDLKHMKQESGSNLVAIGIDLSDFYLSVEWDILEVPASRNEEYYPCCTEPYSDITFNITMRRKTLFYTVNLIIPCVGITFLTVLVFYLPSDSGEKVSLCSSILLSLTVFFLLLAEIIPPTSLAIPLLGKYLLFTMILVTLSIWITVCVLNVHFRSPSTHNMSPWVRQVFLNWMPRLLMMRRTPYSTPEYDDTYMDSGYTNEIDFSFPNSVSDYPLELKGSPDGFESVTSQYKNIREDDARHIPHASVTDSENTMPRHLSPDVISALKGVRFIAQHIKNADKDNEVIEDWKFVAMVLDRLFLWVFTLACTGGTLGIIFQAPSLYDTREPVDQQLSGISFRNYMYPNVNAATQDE
T1 sequence (A0A9B0BGM1 19-519): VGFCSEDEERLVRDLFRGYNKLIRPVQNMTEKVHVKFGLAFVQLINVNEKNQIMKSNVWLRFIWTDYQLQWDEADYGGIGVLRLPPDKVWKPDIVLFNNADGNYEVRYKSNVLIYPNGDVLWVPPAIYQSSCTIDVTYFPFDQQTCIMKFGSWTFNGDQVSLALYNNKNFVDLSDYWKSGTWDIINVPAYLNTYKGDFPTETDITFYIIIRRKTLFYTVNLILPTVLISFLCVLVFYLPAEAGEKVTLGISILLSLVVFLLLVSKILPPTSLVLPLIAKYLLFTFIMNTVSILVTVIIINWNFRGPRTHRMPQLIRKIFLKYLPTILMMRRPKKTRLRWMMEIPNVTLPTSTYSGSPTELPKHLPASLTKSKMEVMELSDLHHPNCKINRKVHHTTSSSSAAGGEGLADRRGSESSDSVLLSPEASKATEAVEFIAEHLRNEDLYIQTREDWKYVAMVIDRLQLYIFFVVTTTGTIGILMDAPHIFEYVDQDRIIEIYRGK

Btα1/Btα8/Btβ1 nAChR [4] = biological target: T1, Btα1/Btα8/Btβ1 nAChR; test: cell-based; set-up: species or system Xenopus laevis oocytes; conditions: Oocyte

Sequence of Amα1/Amα2/Amα8/Amβ1 nAChR (A0A7M7MMZ9 44-627): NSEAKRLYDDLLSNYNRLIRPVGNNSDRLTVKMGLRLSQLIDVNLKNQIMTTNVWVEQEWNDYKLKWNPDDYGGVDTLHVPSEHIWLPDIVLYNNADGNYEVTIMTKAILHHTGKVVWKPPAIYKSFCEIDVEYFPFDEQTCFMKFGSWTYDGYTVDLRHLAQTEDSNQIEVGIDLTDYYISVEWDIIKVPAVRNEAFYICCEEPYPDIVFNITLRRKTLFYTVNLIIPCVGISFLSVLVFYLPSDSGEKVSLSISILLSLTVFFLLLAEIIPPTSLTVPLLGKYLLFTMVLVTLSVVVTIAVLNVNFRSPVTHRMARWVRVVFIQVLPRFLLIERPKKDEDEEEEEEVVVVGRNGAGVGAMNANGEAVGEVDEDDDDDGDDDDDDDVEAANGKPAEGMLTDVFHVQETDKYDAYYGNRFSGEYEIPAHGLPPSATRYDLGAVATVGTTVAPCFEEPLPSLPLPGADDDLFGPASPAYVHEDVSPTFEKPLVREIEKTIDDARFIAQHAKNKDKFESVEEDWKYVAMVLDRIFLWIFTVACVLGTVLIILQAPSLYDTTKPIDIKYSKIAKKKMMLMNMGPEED
Sequence of Amα1/Amα2/Amα8/Amβ1 nAChR (A0A8U0WQD1 18-541): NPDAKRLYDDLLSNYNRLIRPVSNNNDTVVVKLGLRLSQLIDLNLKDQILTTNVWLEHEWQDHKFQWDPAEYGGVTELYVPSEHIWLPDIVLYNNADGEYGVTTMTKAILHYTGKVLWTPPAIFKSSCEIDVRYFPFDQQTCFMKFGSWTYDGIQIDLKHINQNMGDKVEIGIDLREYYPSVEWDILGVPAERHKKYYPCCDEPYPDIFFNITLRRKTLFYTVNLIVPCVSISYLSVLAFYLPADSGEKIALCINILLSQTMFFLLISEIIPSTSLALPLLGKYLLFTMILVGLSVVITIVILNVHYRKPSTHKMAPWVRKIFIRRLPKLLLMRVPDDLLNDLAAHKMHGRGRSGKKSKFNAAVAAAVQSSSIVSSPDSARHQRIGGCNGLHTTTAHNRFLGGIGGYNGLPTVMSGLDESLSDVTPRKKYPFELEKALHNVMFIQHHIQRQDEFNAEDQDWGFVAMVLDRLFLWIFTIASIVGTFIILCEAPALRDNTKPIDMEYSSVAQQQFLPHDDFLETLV
Sequence of Amα1/Amα2/Amα8/Amβ1 nAChR (A0A8U0WQ70 25-537): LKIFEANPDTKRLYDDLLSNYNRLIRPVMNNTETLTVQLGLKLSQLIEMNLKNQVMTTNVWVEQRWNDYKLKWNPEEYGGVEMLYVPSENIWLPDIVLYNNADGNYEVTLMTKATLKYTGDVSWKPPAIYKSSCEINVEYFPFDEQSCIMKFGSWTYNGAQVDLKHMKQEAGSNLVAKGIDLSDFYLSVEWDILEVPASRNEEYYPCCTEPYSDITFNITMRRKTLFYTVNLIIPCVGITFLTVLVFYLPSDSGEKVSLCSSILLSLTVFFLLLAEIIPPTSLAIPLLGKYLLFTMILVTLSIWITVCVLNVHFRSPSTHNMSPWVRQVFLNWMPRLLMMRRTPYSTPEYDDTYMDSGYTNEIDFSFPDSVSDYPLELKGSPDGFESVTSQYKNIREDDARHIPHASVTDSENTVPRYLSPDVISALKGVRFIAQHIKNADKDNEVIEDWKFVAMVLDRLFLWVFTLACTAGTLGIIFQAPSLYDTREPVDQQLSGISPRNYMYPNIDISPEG
Sequence of Amα1/Amα2/Amα8/Amβ1 nAChR (A0A8U0WQC0 25-520): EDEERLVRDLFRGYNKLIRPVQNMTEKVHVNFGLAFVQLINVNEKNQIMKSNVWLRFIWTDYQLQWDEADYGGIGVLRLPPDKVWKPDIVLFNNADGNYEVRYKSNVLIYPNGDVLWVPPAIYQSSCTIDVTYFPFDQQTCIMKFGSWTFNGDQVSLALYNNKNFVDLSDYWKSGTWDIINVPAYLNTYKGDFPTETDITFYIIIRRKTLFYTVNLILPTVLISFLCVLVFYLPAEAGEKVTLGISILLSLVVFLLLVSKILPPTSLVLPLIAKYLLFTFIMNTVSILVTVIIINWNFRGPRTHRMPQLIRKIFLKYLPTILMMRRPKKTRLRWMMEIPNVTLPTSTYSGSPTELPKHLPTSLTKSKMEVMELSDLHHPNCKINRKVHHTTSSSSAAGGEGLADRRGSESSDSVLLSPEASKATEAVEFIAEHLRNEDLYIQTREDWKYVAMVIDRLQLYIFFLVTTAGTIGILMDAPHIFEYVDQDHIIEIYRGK
Sequence of Btα1/Btα2/Btα8/Btβ1 nAChR (A0A9B2JMX7 18-544, one chain of several): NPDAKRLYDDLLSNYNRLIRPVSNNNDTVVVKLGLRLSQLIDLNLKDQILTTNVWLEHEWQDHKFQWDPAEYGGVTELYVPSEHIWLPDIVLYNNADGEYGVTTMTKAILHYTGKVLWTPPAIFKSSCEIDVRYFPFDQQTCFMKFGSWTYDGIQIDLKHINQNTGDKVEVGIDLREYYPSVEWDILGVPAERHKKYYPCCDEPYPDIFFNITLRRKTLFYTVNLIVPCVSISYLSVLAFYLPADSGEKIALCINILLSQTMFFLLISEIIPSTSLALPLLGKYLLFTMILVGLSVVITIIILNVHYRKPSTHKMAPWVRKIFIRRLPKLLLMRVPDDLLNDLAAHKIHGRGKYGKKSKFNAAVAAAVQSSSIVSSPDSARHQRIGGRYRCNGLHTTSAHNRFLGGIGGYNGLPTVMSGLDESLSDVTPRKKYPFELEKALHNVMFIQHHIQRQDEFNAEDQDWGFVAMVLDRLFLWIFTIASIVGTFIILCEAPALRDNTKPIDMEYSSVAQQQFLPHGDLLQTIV

Q: What does the source list for `N#C/N=C1\SCCN1Cc1ccc(Cl)nc1` [thiacloprid]?
A: Emax ([1]; read-out: Thiacloprid / Imax): 9.2 ± 1.1%; EC50 [2]: 0.00692 µM; EC50 (Btα1/Btα8/Btβ1 nAChR [3]): 0.0513 µM; Emax (Btα1/Btα8/Btβ1 nAChR [4]; read-out: Thiacloprid / Imax): 9.4 ± 0.8%

Q: How did the Emax ([1]; read-out: Clothianidin / Imax) turn out when `CN/C(=N\[N+](=O)[O-])NCc1cnc(Cl)s1` [clothianidin] was run?
A: 68 ± 2.9%

Q: And the EC50 [2]?
A: 0.00813 µM

Q: What about the EC50 (Btα1/Btα8/Btβ1 nAChR [3]) of the same compound?
A: 0.0135 µM

Q: And the Emax (Btα1/Btα8/Btβ1 nAChR [4]; read-out: Clothianidin / Imax)?
A: 75.9 ± 1.8%

Q: For `O=[N+]([O-])NC1=NCCN1Cc1ccc(Cl)nc1` [imidacloprid], which Emax ([1]; read-out: Imidacloprid / Imax) is on record?
A: 8.5 ± 0.7%

Q: And the EC50 [2]?
A: 0.0331 µM

Q: What about the EC50 (Btα1/Btα8/Btβ1 nAChR [3]) of the same compound?
A: 0.0251 µM

Q: What about the Emax (Btα1/Btα8/Btβ1 nAChR [4]; read-out: Imidacloprid / Imax) of the same compound?
A: 10.7 ± 1%
